T1: PDZ domain-containing protein 2 (PDZD2), full-length, human (human) (UniProt O15018)
T1 sequence: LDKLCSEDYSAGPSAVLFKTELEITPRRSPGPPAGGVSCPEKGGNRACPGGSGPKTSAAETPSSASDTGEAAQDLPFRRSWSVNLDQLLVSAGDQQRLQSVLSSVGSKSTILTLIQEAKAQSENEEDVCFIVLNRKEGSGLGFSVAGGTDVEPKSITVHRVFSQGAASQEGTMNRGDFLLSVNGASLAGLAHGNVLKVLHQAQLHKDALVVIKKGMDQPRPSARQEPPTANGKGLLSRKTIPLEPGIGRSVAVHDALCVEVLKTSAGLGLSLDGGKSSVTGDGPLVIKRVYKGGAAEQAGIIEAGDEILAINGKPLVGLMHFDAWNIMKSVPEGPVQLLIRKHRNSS


Assays:
DU145 cells = assay: Immunoblotting of PDZD2 in cell lysates and sPDZD2 in conditioned media with anti-PDZD2 antibody; format: cell-based, human; details: 10 μM Z-DEVD-FMK, 48 hours, compared to Z-FA-FMK-treated cells
From the text: (§1) Given that cleavage of pro-IL-16 to form the corresponding secretory IL-16 cytokine is mediated by caspase-3, we tested whether or not proteolytic cleavage of full-length PDZD2 to its secreted protein sPDZD2 is caspase-3-dependent in human prostate, breast and liver cancer cells. Human prostate cancer cell lines LNCaP.FGC (CRL-1740), DUI45 (HTB-81), PC-3 (CRL-1435), and 22Rv1 (CRL-2505), breast adenocarcinoma cell line MCF-7 (HTB-22), and hepatocellular carcinoma cell line Hep-G2 (HB-8065) were obtained from American Type Culture Collection. […] Cell lysates in sample buffer (0.2% SDS, 10% glycerol, 0.06 M Tris-HCl (pH 6.8), 100 mM DTT, and 0.01% bromophenol blue) were heated at 95° C. for 5 min. Proteins in the conditioned media were concentrated by 50-fold using YM-10 Centricons (Millipore). Samples (10 μg) were resolved by SDS-PAGE and electroblotted to PVDF membranes (Millipore). The blots were blocked with 5% non-fat milk powder in TBS-T for 1 hour at room temperature and then incubated with rabbit anti-PDZD2 antibody (1: 10,000 dilution) overnight at 4° C. After washing with TBS-T, the blots were incubated with secondary antibodies against rabbit immunoglobulin G (ZYMED Laboratories). Blots were stripped in 25 mM glycine buffer (pH 2.0) for 30 min for re-probing with α-tubulin (1:500 dilution, Santa Cruz Biotechnology). The signals were visualized by enhanced chemiluminescence Western blotting system (Amersham Biosciences) and densitometric scannings of films of the developed blot normalized against α-tubulin were determined.

MCF-7 cells = assay: as above; format: cell-based, human; details: 10 μM Z-DEVD-FMK, 48 hours, compared to Z-FA-FMK-treated cells
From the text: as §1

22Rv1 cells = assay: as above; format: cell-based, human; details: 10 μM Z-DEVD-FMK, 48 hours, compared to Z-FA-FMK-treated cells
From the text: as §1

PC-3 cells = assay: as above; format: cell-based, human; details: 10 μM Z-DEVD-FMK, 48 hours, compared to Z-FA-FMK-treated cells
From the text: as §1

Hep-G2 cells = assay: as above; format: cell-based, human; details: 10 μM Z-DEVD-FMK, 48 hours, compared to Z-FA-FMK-treated cells
From the text: as §1

[1] = target: T1, PDZ domain-containing protein 2 (PDZD2), full-length, human (human); assay: cell-based or functional assay

Row | increase of full-length PDZD2 in cell lysate, 22Rv1 cells, 10 µM Z-DEVD-FMK 48 h vs Z-FA-FMK [1] [fold] | increase of full-length PDZD2 in cell lysate, DU145 cells, 10 µM Z-DEVD-FMK 48 h vs Z-FA-FMK [1] [fold] | increase of full-length PDZD2 in cell lysate, Hep-G2 cells, 10 µM Z-DEVD-FMK 48 h vs Z-FA-FMK [1] [fold] | increase of full-length PDZD2 in cell lysate, MCF-7 cells, 10 µM Z-DEVD-FMK 48 h vs Z-FA-FMK [1] [fold] | increase of full-length PDZD2 in cell lysate, PC-3 cells, 10 µM Z-DEVD-FMK 48 h vs Z-FA-FMK [1] [fold] | reduction of sPDZD2 secretion into conditioned medium, 22Rv1 cells, 10 µM Z-DEVD-FMK 48 h vs Z-FA-FMK [1] [%] | reduction of sPDZD2 secretion into conditioned medium, DU145 cells, 10 µM Z-DEVD-FMK 48 h vs Z-FA-FMK [1] [%] | reduction of sPDZD2 secretion into conditioned medium, Hep-G2 cells, 10 µM Z-DEVD-FMK 48 h vs Z-FA-FMK [1] [%] | reduction of sPDZD2 secretion into conditioned medium, MCF-7 cells, 10 µM Z-DEVD-FMK 48 h vs Z-FA-FMK [1] [%] | reduction of sPDZD2 secretion into conditioned medium, PC-3 cells, 10 µM Z-DEVD-FMK 48 h vs Z-FA-FMK [1] [%] | Molecule | increase of PDZD2 expression (DU145 cells) [fold] | reduction of sPDZD2 secretion into conditioned media (DU145 cells; serum-free) [%] | increase of PDZD2 expression (MCF-7 cells) [fold] | reduction of sPDZD2 secretion into conditioned media (MCF-7 cells; serum-free) [%] | increase of PDZD2 expression (22Rv1 cells) [fold] | reduction of sPDZD2 secretion into conditioned media (22Rv1 cells; serum-free) [%] | increase of PDZD2 expression (PC-3 cells) [fold] | reduction of sPDZD2 secretion into conditioned media (PC-3 cells; serum-free) [%] | increase of PDZD2 expression (Hep-G2 cells) [fold] | reduction of sPDZD2 secretion into conditioned media (Hep-G2 cells; serum-free) [%]
1 |  |  |  |  |  |  |  |  |  |  | Z-DEVD-FMK | 3 | 40 | 3.5 | 57 | 4.4 | 44 | 2 | 28 | 4.1 | 52
2 | 4.4 | 3 | 4.1 | 3.5 | 2 | 44 | 40 | 52 | 57 | 28 | caspase-3 (enzyme, human, UniProt P42574 29-277, looked up) SGISLDNSYKMDYPEMGLCIIINNKNFHKSTGMTSRSGTDVDAANLRETFRNLKYEVRNKNDLTREEIVELMRDVSKEDHSKRSSFVCVLLSHGEEGIIFGTNGPVDLKKITNFFRGDRCRSLTGKPKLFIIQACRGTELDCGIETDSGVDDDMACHKIPVEADFLYAYSTAPGYYSWRNSKDGSWFIQSLCAMLKQYADKLEFMHILTRVNRKVATEFESFSFDATFHAKKQIPCIVSMLTKELYFYH |  |  |  |  |  |  |  |  |  | 

Reference: patent US20090062189A1, “TUMOR SUPPRESSOR PROTEIN AND NUCLEOTIDE ENCODING SAME” (priority 2006, published 2009)
